How the values were obtained:
Assay type in all cases: cell-based, human
[1] = test system: NOX activity; test: Amplex Red measurement of extracellular hydrogen peroxide (NOX activity) using DMSO-differentiated HL60 cells; conditions: for Inhibition (%) of NOX activity: Amplex red, DMSO-differentiated HL60 cells, compound concentration not stated
Experimental: Human acute myeloid leukemia cell line HL-60 was cultured in RPMI 1640 (Invitrogen) supplemented with 10% heat-inactivated calf serum, 2 mM glutamine, 100 U/mL penicillin (Sigma), and 100 μg streptomycin (Sigma) at 37° C. under a humidified atmosphere of 5% CO2. HL60 differentiation to the neutrophil phenotype was triggered by adding Me2SO (final concentration 1.25% v/v for 6 days) to the culture medium.
Extracellular hydrogen peroxide was measured using Amplex UltraRed (Molecular Probes). Cells were trypsinized (1× Trypsin-EDTA), collected by centrifugation, and resuspended in HBSS supplemented with 1% glucose. Cells were seeded into black 96-well plates at a density of 50′000 cells in 200 μl testing buffer (HBSS 1% glucose containing 0.005 U/mL horseradish peroxidase (Roche) and 50 μM Amplex Red in the presence or absence of compounds according to the invention. As a control, DPI was included at a final concentration of 10 μM The plates were placed in the fluorescent Optima Fluorescent plate reader and kept at 37° C. during 20 min Fluorescence was measured for […] with excitation and emission wavelengths of 544 nm and 590 nm respectively. NOX activities were expressed as % of the activity in control cells. Residual activity of DPI-treated cells was usually <10%.
The Table 2 below summarizes the percentage of inhibition of NOX activity as measured by Amplex red using DMSO-differentiated HL60 cells as described above: […]

[2] = test system: NOX activities; test: Nitroblue tetrazolium (NBT) test of intracellular and extracellular superoxide in cells; conditions: DPI at a final concentration of 10 μM
Experimental: Intracellular and extracellular superoxide was measured by a colorimetric technique using a quantitative nitroblue tetrazolium (NBT) test. SOD-inhibitable conversion of NBT to formazan, a fine blue precipitate, in the presence of superoxide anion was measured using Fluostar Optima spectrometer (BMG labtech). Following incubation with appropriate stimuli, cells were trypsinized (1× Trypsin-EDTA), collected by centrifugation, and washed with PBS to remove medium. 5×10^5 cells were plated on 48-well plates and incubated in Hank's balanced salt solution containing 0.5 mg/mL NBT with or without 800 U/mL SOD in the presence or absence of compounds according to the invention. As a control, DPI was included at a final concentration of 10 μM. After 2.5 h, cells were fixed and washed with methanol to remove non reduced NBT. The reduced formazan was then dissolved in 230 μl of 2M potassium hydroxide and in 280 μl of dimethylsulfoxide. The absorption was measured at 630 nm. For calculation, the absorbance at 630 nm was normalized for each individual well. The mean of the four blank values was subtracted from each corrected value for each time point. NOX activities were expressed as % of the activity in control cells. Residual activity of DPI-treated cells was usually <10%.

[3] = test system: NOX activities; test: H2DCF-DA (DCF fluorescence) ROS measurement in TGF-β stimulated HUVEC
Experimental: HUVEC are cultured in endothelial basal medium supplemented with hydrocortisone (1 μg/mL, CalbioChem), bovine brain extract (12 μg/mL), gentamicin (50 μg/mL, CalbioChem), amphotericin B (50 ng/mL, CalBioChem EGF (10 ng/mL, and 10% FCS until the fourth passage. When the fifth passage was started, cells were cultured with a lower concentration of FCS (2%) in the absence of EGF, if not indicated otherwise. All experiments were done with cells of the fifth passage. The cells were incubated with OxLDL (oxidized low-density lipoprotein) or its buffer as control for 24 h, before detection of O2^− formation.
HUVEC were plated on coverslips and made quiescent overnight in 0.5% BSA before stimulation with TGF-β. Cells were loaded for 10 minutes with 5 μM CM-H2DCFDA in phenol-red-free medium in the dark and then treated with TGF-β (R&D Systems) in the presence or absence of compounds according to the invention. Cells were then visualized by immunofluorescence microscopy after fixation and staining of the nuclei with DAPI or examined live using confocal microscopy. DCF fluorescence was visualized at an excitation wavelength of 488 nm and emission at 515 to 540 nm. […] For calculation, the absorbance at […] was normalized to absorbance at […] for each individual well. […] NOX activities were expressed as % of the activity in control cells. […]

[4] = test system: NOX activities; test: Chemiluminescence (luminol) measurement of ROS in cells
Experimental: ROS was measured using the chemiluminescent probe luminol. Cells were cultured and plated as for Amplex Red except that the Amplex Red agent was replaced by 10 μg/mL luminol (Sigma 09235). Light emission was recorded continuously at 37° C. for 60 minutes using the luminescence function of the FluoStar Optima fluorescent plate reader. The mean of the four blank values was subtracted from each corrected value for each time point. NOX activities were expressed as % of the activity in control cells. Residual activity of DPI-treated cells was usually <10%.

Compound: O=c1c2c(COCc3ccccc3)n(CC3CCCNC3)c(=O)cc2[nH]n1-c1ccccc1Cl (stereo not drawn) [Compound 130, 4-[(benzyloxy)methyl]-2-(2-chlorophenyl)-5-(piperidin-3-ylmethyl)-1H-pyrazolo[4,3-c] pyridine-3,6(2H,5H)-dione]
- Inhibition (%) of NOX activity [1]: 80%

Compound: Cn1c(COCc2cccc(Cl)c2)c2c(=O)n(-c3ccccc3Cl)[nH]c2cc1=O [Compound 139, 4-{[(3-chlorobenzyl)oxy]methyl}-2-(2-chlorophenyl)-5-methyl-1H-pyrazolo[4,3-c] pyridine-3,6(2H,5H)-dione]
- Inhibition (%) of NOX activity [1]: 76%

Compound: COc1cccc(CN(C)Cc2c3c(=O)n(-c4ccccc4Cl)[nH]c3cc(=O)n2C)c1 [Compound 143, 2-(2-chlorophenyl)-4-{[(3-methoxybenzyl) (methyl)amino]methyl}-5-methyl-1H-pyrazolo [4,3-c]pyridine-3,6 (2H,5H)-dione]
- Inhibition (%) of NOX activity [1]: 82%

Compound: CN(Cc1cccnc1)Cc1c2c(=O)n(-c3ccccc3Cl)[nH]c2cc(=O)n1C [Compound 147, 2-(2-chlorophenyl)-5-methyl-4-{[methyl (pyridin-3-ylmethyl)amino]methyl}-1H-pyrazolo[4,3-c] pyridine-3,6(2H,5H)-dione]
- Inhibition (%) of NOX activity [1]: 80%

Compound: COc1cccc(N2CCN(Cc3c4c(=O)n(-c5ccccc5Cl)[nH]c4cc(=O)n3C)CC2)c1 [Compound 163, 2-(2-chlorophenyl)-4-{[4-(3-methoxyphenyl)piperazin-1-yl]methyl}-5-methyl-1H-pyrazolo[4,3-c]pyridine-3,6(2H,5H)-dione]
- Inhibition (%) of NOX activity [1]: 80%

Compound: c1ccc([I+]c2ccccc2)cc1 [DPI, Diphenyl-iodonium]
- Residual activity of DPI-treated cells (NOX activity as % of the activity in control cells) [2]: < 10%
- Residual activity of DPI-treated cells (NOX activity as % of the activity in control cells) [3]: < 10%
- Residual activity of DPI-treated cells (NOX activity as % of the activity in control cells) [4]: < 10%
- Residual activity of DPI-treated cells (NOX activity as % of the activity in control cells) ([1]; Amplex Red, DPI at a final concentration of 10 μM): < 10%

— patent US8455485B2, “Pyrazolo pyridine derivatives as NADPH oxidase inhibitors” (Genkyotex SA, priority 2008, dated 2013)
